According to US20250215030A1, “STAT MODULATORS AND USES THEREOF” (Recludix Pharma, Inc., priority 2022, published 2025):

How the values were obtained:
[1] = target: T1, Recombinant STAT3 protein (STAT3(G127-I722)) (Homo sapiens, UniProt P40763); test: STAT3 Fluorescence Polarization (FP) Assay; assay type: binding; details: STAT3(G127-I722) 25 nM, probe 5-FAM-GpYLPQTV-NH2 2 nM, 45-minute incubation
T1 construct: STAT3(G127-I722)
Procedure, shortened: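 Serially diluted compounds (1% DMSO) were mixed with 2 nM fluorescent phosphotyrosine peptide and 25 nM STAT3 construct G127-I722, pH 7.4, incubated 45 min at room temperature. IC50 values from fitted polarization curves are reported as categories A (≤100 nM), B, C, D (>10 μM).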

[2] = target: T2, Recombinant STAT6 protein (STAT6(W123-T658)) (Homo sapiens, UniProt P42226); test: STAT6 Fluorescence Polarization (FP) Assay; assay type: binding; details: STAT6(W123-T658) 250 nM, probe 5-FAM-ApYKPFQDLI-NH2 2 nM, 45-minute incubation
T2 construct: STAT6(W123-T658)
T2 sequence (P42226 123-658): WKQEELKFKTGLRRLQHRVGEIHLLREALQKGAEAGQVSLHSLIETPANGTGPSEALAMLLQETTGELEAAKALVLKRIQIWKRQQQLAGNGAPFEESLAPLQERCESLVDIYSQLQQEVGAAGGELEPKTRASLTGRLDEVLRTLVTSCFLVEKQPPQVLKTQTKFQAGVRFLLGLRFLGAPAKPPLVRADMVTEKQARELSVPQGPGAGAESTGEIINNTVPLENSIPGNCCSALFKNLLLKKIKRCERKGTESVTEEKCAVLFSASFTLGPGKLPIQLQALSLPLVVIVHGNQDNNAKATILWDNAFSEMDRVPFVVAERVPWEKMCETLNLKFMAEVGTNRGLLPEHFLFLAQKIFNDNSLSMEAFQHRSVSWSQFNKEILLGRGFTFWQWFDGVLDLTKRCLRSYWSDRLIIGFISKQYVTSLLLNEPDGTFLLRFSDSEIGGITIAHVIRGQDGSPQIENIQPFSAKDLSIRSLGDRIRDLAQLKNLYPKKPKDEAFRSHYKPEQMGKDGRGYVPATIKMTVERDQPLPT
Procedure, shortened: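 Competitive displacement of a fluorescent phosphotyrosine peptide (2 nM) from recombinant STAT6 W123-T658 (250 nM), 45 min at room temperature in 10 mM HEPES pH 7.4, 50 mM NaCl, 2 mM DTT. mP fitted against log compound for IC50, grouped A (≤300 nM) to D (>30 μM).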

T1 sequence (P40763 127-722, species assumed): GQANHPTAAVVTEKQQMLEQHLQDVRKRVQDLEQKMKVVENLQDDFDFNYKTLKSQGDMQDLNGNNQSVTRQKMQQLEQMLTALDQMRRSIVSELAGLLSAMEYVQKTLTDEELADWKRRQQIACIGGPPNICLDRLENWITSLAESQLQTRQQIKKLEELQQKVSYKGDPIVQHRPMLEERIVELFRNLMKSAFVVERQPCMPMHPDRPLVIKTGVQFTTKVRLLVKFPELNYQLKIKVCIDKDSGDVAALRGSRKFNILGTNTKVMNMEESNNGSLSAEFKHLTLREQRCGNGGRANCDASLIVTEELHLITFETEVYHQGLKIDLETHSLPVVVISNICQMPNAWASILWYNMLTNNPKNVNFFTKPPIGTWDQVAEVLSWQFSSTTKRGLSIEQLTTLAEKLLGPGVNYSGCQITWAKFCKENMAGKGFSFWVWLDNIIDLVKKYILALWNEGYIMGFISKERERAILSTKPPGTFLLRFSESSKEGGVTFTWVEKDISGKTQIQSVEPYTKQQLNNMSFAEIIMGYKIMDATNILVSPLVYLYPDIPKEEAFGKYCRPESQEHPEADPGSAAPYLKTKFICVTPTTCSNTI

| IC50 [1] | IC50 [2] | Structure (SMILES) |
| --- | --- | --- |
| < 100 nM | 0.3 to 3 µM | O=C(N[C@H]1C[C@@H]2C[C@@H]2C[C@H]2CC[C@@H](C(=O)N3CC(c4cnccc4F)C3)N2C1=O)c1cc2cc(C(F)P(=O)(O)O)ccc2s1 (stereo partly drawn) [Example 262, (fluoro(2-(((3S,6S,7aS,8aR,9aR)-3-(3-(4-fluoropyridin-3-yl)azetidine-1-carbonyl)-5-oxodecahydro-1H-cyclopropa[d]pyrrolo[1,2-a]azocin-6-yl)carbamoyl)benzo[b]thiophen-5-yl)methyl)phosphonic acid] |
| < 100 nM | 3 to 30 µM | CCc1ccncc1C1CN(C(=O)[C@@H]2CC[C@@H]3C[C@H]4C[C@H]4C[C@H](NC(=O)c4cc5cc(C(F)P(=O)(O)O)ccc5s4)C(=O)N32)C1 (stereo partly drawn) [Example 266, ((2-(((3S,6S,7aS,8aR,9aR)-3-(3-(4-ethylpyridin-3-yl)azetidine-1-carbonyl)-5-oxodecahydro-1H-cyclopropa[d]pyrrolo[1,2-a]azocin-6-yl)carbamoyl)benzo[b]thiophen-5-yl)fluoromethyl)phosphonic acid] |
| 1000 to 10000 nM | > 30 µM | CC(=O)N1CCC2C1CN2C(=O)[C@@H]1CC[C@@H]2C[C@H]3C[C@H]3C[C@H](NC(=O)c3cc4cc(CP(=O)(O)O)ccc4s3)C(=O)N21 (stereo partly drawn) [Example 271, ((2-(((3S,6S,7aS,8aR,9aR)-3-(2-acetyl-2,6-diazabicyclo[3.2.0]heptane-6-carbonyl)-5-oxodecahydro-1H-cyclopropa[d]pyrrolo[1,2-a]azocin-6-yl)carbamoyl)benzo[b]thiophen-5-yl)methyl)phosphonic acid] |
| < 100 nM | 0.3 to 3 µM | O=C(N[C@H]1C[C@@H]2C[C@@H]2C[C@H]2CC[C@@H](C(=O)N3CC4C3CCN4c3cccnc3)N2C1=O)c1cc2cc(C(F)(F)P(=O)(O)O)ccc2s1 (stereo partly drawn) [Example 274, (difluoro(2-(((3S,6S,7aS,8aR,9aR)-5-oxo-3-(2-(pyridin-3-yl)-2,6-diazabicyclo[3.2.0]heptane-6-carbonyl)decahydro-1H-cyclopropa[d]pyrrolo[1,2-a]azocin-6-yl)carbamoyl)benzo[b]thiophen-5-yl)methyl)phosphonic acid] |
| 100 to 1000 nM | > 30 µM | Cc1ccncc1N1C[C@H](NC(=O)[C@@H]2CC[C@@H]3C[C@H]4C[C@H]4C[C@H](NC(=O)c4cc5cc(CP(=O)(O)O)ccc5s4)C(=O)N32)[C@@H](F)C1 [Example 278, ((2-(((3S,6S,7aS,8aR,9aR)-3-(((3S,4S)-4-fluoro-1-(4-methylpyridin-3-yl)pyrrolidin-3-yl)carbamoyl)-5-oxodecahydro-1H-cyclopropa[d]pyrrolo[1,2-a]azocin-6-yl)carbamoyl)benzo[b]thiophen-5-yl)methyl)phosphonic acid] |

The next lines start with the compound.

| Structure (SMILES) | IC50 [1] | IC50 [2] |
| --- | --- | --- |
| O=C(N[C@H]1C[C@@H]2C[C@@H]2C[C@H]2CC[C@@H](C(=O)N3CCC4C3CN4c3cccnc3)N2C1=O)c1cc2cc(C(F)(F)P(=O)(O)O)ccc2s1 (stereo partly drawn) [Example 259, (difluoro(2-(((3S,6S,7aS,8aR,9aR)-5-oxo-3-(6-(pyridin-3-yl)-2,6-diazabicyclo[3.2.0]heptane-2-carbonyl)decahydro-1H-cyclopropa[d]pyrrolo[1,2-a]azocin-6-yl)carbamoyl)benzo[b]thiophen-5-yl)methyl)phosphonic acid] | < 100 nM | 0.3 to 3 µM |
| CC(=O)N1CC2C1CCN2C(=O)[C@@H]1CC[C@@H]2C[C@H]3C[C@H]3C[C@H](NC(=O)c3cc4cc(CP(=O)(O)O)ccc4s3)C(=O)N21 (stereo partly drawn) [Example 260, ((2-(((3S,6S,7aS,8aR,9aR)-3-(6-acetyl-2,6-diazabicyclo[3.2.0]heptane-2-carbonyl)-5-oxodecahydro-1H-cyclopropa[d]pyrrolo[1,2-a]azocin-6-yl)carbamoyl)benzo[b]thiophen-5-yl)methyl)phosphonic acid] | 1000 to 10000 nM | > 30 µM |
| O=C(N[C@H]1C[C@@H]2C[C@@H]2C[C@H]2CC[C@@H](C(=O)N3CCC4C3CN4c3cccnc3)N2C1=O)c1cc2cc(CP(=O)(O)O)ccc2s1 (stereo partly drawn) [Example 261, ((2-(((3S,6S,7aS,8aR,9aR)-5-oxo-3-(6-(pyridin-3-yl)-2,6-diazabicyclo[3.2.0]heptane-2-carbonyl)decahydro-1H-cyclopropa[d]pyrrolo[1,2-a]azocin-6-yl)carbamoyl)benzo[b]thiophen-5-yl)methyl)phosphonic acid] | 100 to 1000 nM | 3 to 30 µM |
| COc1ccncc1C1CN(C(=O)[C@@H]2CC[C@@H]3C[C@H]4C[C@H]4C[C@H](NC(=O)c4cc5cc(CP(=O)(O)O)ccc5s4)C(=O)N32)C1 [Example 265, ((2-(((3S,6S,7aS,8aR,9aR)-3-(3-(4-methoxypyridin-3-yl)azetidine-1-carbonyl)-5-oxodecahydro-1H-cyclopropa[d]pyrrolo[1,2-a]azocin-6-yl)carbamoyl)benzo[b]thiophen-5-yl)methyl)phosphonic acid] | < 100 nM | > 30 µM |
| O=C(N[C@H]1C[C@H]2C[C@H]2C[C@H]2CC[C@@H](C(=O)N[C@H]3CN(c4cccnc4)C[C@@H]3F)N2C1=O)c1cc2cc(C(F)P(=O)(O)O)ccc2s1 (stereo partly drawn) [Example 267, (fluoro(2-(((3S,6S,7aR,8aS,9aR)-3-(((3S,4S)-4-fluoro-1-(pyridin-3-yl)pyrrolidin-3-yl)carbamoyl)-5-oxodecahydro-1H-cyclopropa[d]pyrrolo[1,2-a]azocin-6-yl)carbamoyl)benzo[b]thiophen-5-yl)methyl)phosphonic acid] | < 100 nM | 0.3 to 3 µM |
| CC(=O)N1CCC2C1CN2C(=O)[C@@H]1CC[C@@H]2C[C@H]3C[C@H]3C[C@H](NC(=O)c3cc4cc(C(F)(F)P(=O)(O)O)ccc4s3)C(=O)N21 (stereo partly drawn) [Example 270, ((2-(((3S,6S,7aS,8aR,9aR)-3-(2-acetyl-2,6-diazabicyclo[3.2.0]heptane-6-carbonyl)-5-oxodecahydro-1H-cyclopropa[d]pyrrolo[1,2-a]azocin-6-yl)carbamoyl)benzo[b]thiophen-5-yl)difluoromethyl)phosphonic acid] | < 100 nM | 0.3 to 3 µM |
| COc1ccncc1C1CN(C(=O)[C@@H]2CC[C@@H]3C[C@H]4C[C@H]4C[C@H](NC(=O)c4cc5cc(C(F)P(=O)(O)O)ccc5s4)C(=O)N32)C1 (stereo partly drawn) [Example 272, (fluoro(2-(((3S,6S,7aS,8aR,9aR)-3-(3-(4-methoxypyridin-3-yl)azetidine-1-carbonyl)-5-oxodecahydro-1H-cyclopropa[d]pyrrolo[1,2-a]azocin-6-yl)carbamoyl)benzo[b]thiophen-5-yl)methyl)phosphonic acid] | < 100 nM | 3 to 30 µM |
| CC(=O)N1C[C@H](NC(=O)[C@@H]2CC[C@@H]3C[C@]4(C)C[C@@H]4C[C@H](NC(=O)c4cc5cc(CP(=O)(O)O)ccc5s4)C(=O)N32)[C@@H](F)C1 [Example 273, ((2-(((3S,6S,7aR,8aS,9aR)-3-(((3S,4S)-1-acetyl-4-fluoropyrrolidin-3-yl)carbamoyl)-8a-methyl-5-oxodecahydro-1H-cyclopropa[d]pyrrolo[1,2-a]azocin-6-yl)carbamoyl)benzo[b]thiophen-5-yl)methyl)phosphonic acid] | 1000 to 10000 nM | 3 to 30 µM |
| O=C(N[C@H]1C[C@@H]2C[C@@H]2C[C@H]2CC[C@@H](C(=O)N3CC4C3CCN4c3cccnc3)N2C1=O)c1cc2cc(CP(=O)(O)O)ccc2s1 (stereo partly drawn) [Example 275, ((2-(((3S,6S,7aS,8aR,9aR)-5-oxo-3-(2-(pyridin-3-yl)-2,6-diazabicyclo[3.2.0]heptane-6-carbonyl)decahydro-1H-cyclopropa[d]pyrrolo[1,2-a]azocin-6-yl)carbamoyl)benzo[b]thiophen-5-yl)methyl)phosphonic acid] | 100 to 1000 nM | 3 to 30 µM |
| O=C(N[C@H]1C[C@@H]2C[C@@H]2C[C@H]2CC[C@@H](C(=O)N[C@H]3CNC[C@@H]3F)N2C1=O)c1cc2cc(CP(=O)(O)O)ccc2s1 [Example 276, ((2-(((3S,6S,7aS,8aR,9aR)-3-(((3S,4S)-4-fluoropyrrolidin-3-yl)carbamoyl)-5-oxodecahydro-1H-cyclopropa[d]pyrrolo[1,2-a]azocin-6-yl)carbamoyl)benzo[b]thiophen-5-yl)methyl)phosphonic acid] | 1000 to 10000 nM | > 30 µM |
| Cc1ccncc1C1CN(C(=O)[C@@H]2CC[C@@H]3C[C@H]4C[C@H]4C[C@H](NC(=O)c4cc5cc(CP(=O)(O)O)ccc5s4)C(=O)N32)C1 [Example 277, ((2-(((3S,6S,7aS,8aR,9aR)-3-(3-(4-methylpyridin-3-yl)azetidine-1-carbonyl)-5-oxodecahydro-1H-cyclopropa[d]pyrrolo[1,2-a]azocin-6-yl)carbamoyl)benzo[b]thiophen-5-yl)methyl)phosphonic acid] | 100 to 1000 nM | > 30 µM |
